According to patent US6814972B2, “Composition for prevention and/or treatment of vascular diseases, comprising propionyl L-carnitine and coenzyme Q10” (priority 2000, dated 2004):
“Also recorded” adds a separate entry of the source.

Key:
[1] = system: mice administered scopolamine; assay: Learning test (water maze, scopolamine-treated mice); type: in vivo, mouse; conditions: for activity in the learning test (in words): summary of Table 5; for Latency period, administration (per os, 3 days): oral for three consecutive days, carnitines 300 mg/kg, coenzyme Q10 20 mg/kg; for Latency period, administration (per os, 3 days) / Latency period, administration (I.P.): scopolamine 3 mg/kg i.p.; for Latency period, administration (I.P.): single intraperitoneal dose one hour before test, carnitines 100 mg/kg, coenzyme Q10 50 mg/kg
Experimental: These tests were performed in mice using the water maze procedure as described by Morris (Morris R., J. Neurosci. Meth., 11:47, 1984) and modified by Lin (Lin Y., Acta Pharmacol. Sin., 19:413, 1998). The procedure consists in placing, in a maze situated in a tank containing water (80 cm×50 cm×20 cm) 10 cm deep, mice of both sexes weighing approximately 20 g each, which, after a suitable period of training in the task of finding their way back to the final platform and after selecting those that took less than 20 min to do so, were divided into various groups.
Both intraperitoneal and oral administration were carried out one hour prior to the start of the test. Half an hour before the start all the animals were administered scopolamine intraperitoneally at the dose of 3 mg/kg. As is known, scopolamine induces abnormalities of spatial orientation and prolongs latency time in finding the way to reach the platform.
After the test the latency time to reach the platform was calculated for each animal.

[2] = system: vascular thrombosis of the rat tail induced by K-carrageenin and endothelin-1; assay: Experimental thrombotic vascular disease test (K-carrageenin + endothelin-1, rat tail); type: in vivo; conditions: for % inhibition of thrombosis after 2 h: 2 h after K-carrageenin; for % inhibition of thrombosis after 24 h: 24 h after K-carrageenin; for protective effect against the onset or severity of the vasculopathy lesions induced (in words): summary of Tables 1 and 2
Experimental: The method used in these tests was that described by Bekemeier (Bekemeier H., Agents and Actions, 16:446, 1985) modified by Bertelli (Bertelli A., Drugs Exptl. Clin. Res., 19:7, 1993) which consists in injecting K-carrageenin (0.5 mg/kg carrageenin, Sigma Chemical St. Louis Mo., USA) into the dorsal artery of the rat tail and, immediately prior to the K-carrageenin injection, 500 pmol/kg of endothelin-1 (Peninsula Laboratories, Belmont Calif., USA) by intravenous injection. With this method, as early as the second hour after injection of K-carrageenin, vascular thrombosis developed which could be estimated by measuring the length of the infarcted portion of the tail, the length of the entire tail and the ratio between the two (% infarcted tail).
The phenomenon was assessed two and twenty-four hours after injection of K-carrageenin. […]

[3] = system: ischaemic area caused by occlusion of middle cerebral artery (MCA); assay: Experimental cerebral ischaemia test (endothelin-1 occlusion of middle cerebral artery); type: in vivo, rat; conditions: for Extent of cerebral ischaemia due to occlusion of the MCA (% reduction in volume compared to controls): intravenous, five minutes after endothelin injection, carnitines 100 mg/kg, coenzyme Q10 50 mg/kg, evaluated three days later; for ability to reduce the extent of the ischaemia induced by occlusion of the MCA (in words): summary of Table 3
Experimental: With this test, the ischaemic area caused by occlusion of middle cerebral artery (MCA) was evaluated using the method described by Scharkey (Scharkey Y., Nature, 371:336, 1994), performed by injecting endothelin-1 (120 pmol in […]) in 5 minutes into anaesthetised rats with a microcannula placed stereotactically in the piriform cortex at the level of the middle cerebral artery. With this method, occlusion of the middle cerebral artery is induced and the resulting ischaemic area can be visualised three days later with transcardiac perfusion of a paraformaldehyde solution (4% in PBS). After extracting the cerebral mass, the latter was placed for twenty-four hours in a fixative containing 10% sucrose, and cryostat sections ([…]) fixed with resyl violet were examined under the optical microscope. The volume of the infarcted area was calculated according to the method described by Park (Park C. K., Ann. Neurol., 20:150, 1989).

[4] = system: papillary muscle of rabbit heart subjected to hypoxia; assay: Myocardial anti-anoxic activity test (ATP in hypoxic papillary muscle); type: in vivo; conditions: for ATP concentrations, after hypoxia / ATP concentrations, before hypoxia: daily i.v. for three days (carnitines 100 mg/kg, combination 5 x 25 mg/kg, coenzyme Q10 50 mg/kg); for ATP concentrations, after hypoxia: after a 90 min anoxia period; for ATP concentrations, before hypoxia: papillary muscle under oxygen perfusion for 90 min; for preservation of ATP concentrations in papillary muscle (in words): summary of Table 4
From the text: This test was used to assess the ability of propionyl L-carnitine to protect the myocardium against the loss of ATP induced by anoxia and to preserve energy capacity even in these conditions.
An attempt was therefore made to establish whether prior treatment with propionyl L-carnitine, L-carnitine, carnitine combination or coenzyme Q10 alone or in combination with propionyl L-carnitine or with the other preparations was capable of preserving normal ATP concentrations in the hypoxic myocardium.
After three days of treatment, all the animals were sacrificed. Sections of papillary muscle measuring 1 mm in diameter and 4-5 mm in thickness were isolated. These samples of papillary muscle were perfused in a thermostatic bath with a saturated solution of 100% O2. The hypoxia was then produced by introducing 100% N2 in the bath in place of O2. The ATP concentrations in papillary muscle were measured using the method described by Strehler (Strehler B. L., Methods in Enzymology, 111, N.Y. Acad. Press, 879, 1957). The analysis was done on tissue samples maintained under oxygen perfusion for 90 min and after a 90 min anoxia period.

[5] = system: Sprague-Dawley male rats; assay: Toxicology test, single oral administration of high doses; type: in vivo; conditions: propionyl L-carnitine 2 g/kg, coenzyme Q10 0.2 g/kg, or the same amounts in combination
From the text: Their use in combination also produces no damaging toxicological effects.

[6] = intravenous administration, carnitines 50 mg/kg (combination 5 x 10 mg/kg), coenzyme Q10 20 mg/kg
[7] = oral administration for four days prior to the test, carnitines 300 mg/kg (combination 5 x 75 mg/kg), coenzyme Q10 100 mg/kg

Structure (SMILES) | activity in the learning test (in words) [1] | % inhibition of thrombosis after 2 h [2, 6] | % inhibition of thrombosis after 24 h [2, 6] | % inhibition of thrombosis after 2 h [2, 7] | % inhibition of thrombosis after 24 h [2, 7] | protective effect against the onset or severity of the vasculopathy lesions induced (in words) [2] | Extent of cerebral ischaemia due to occlusion of the MCA (% reduction in volume compared to controls) [3] | ability to reduce the extent of the ischaemia induced by occlusion of the MCA (in words) [3] | ATP concentrations, after hypoxia [4] | ATP concentrations, before hypoxia [4] | Latency period, administration (per os, 3 days) [1] | Latency period, administration (I.P.) [1] | toxic effects or signs of intolerance [5] | preservation of ATP concentrations in papillary muscle (in words) [4]
CC(=O)O[C@H](CC(=O)[O-])C[N+](C)(C)C [Acetyl L-carnitine, acetyl L-carnitine] | only poor activity | 8.8 ± 0.7% | 10.6 ± 0.8% | 9.2 ± 0.8% | 11.5 ± 1.5% | ineffective | 15.8 ± 1.4% | no significant protective effect | 0.54 ± 0.075 µmol/g tissue | 1.58 ± 0.98 µmol/g tissue | – | – | – | –
CCC(=O)O[C@H](CC(=O)[O-])C[N+](C)(C)C [Propionyl L-carnitine, propionyl L-carnitine] | – | 16.25 ± 0.7% | 26.45 ± 1.9% | 14.5 ± 0.7% | 30.5 ± 3.3% | protective effect | 30.3 ± 3.6% | good ability to reduce the extent of the ischaemia | 0.64 ± 0.055 µmol/g tissue | 1.58 ± 0.64 µmol/g tissue | 30 ± 16 s | 32 ± 12 s | failed to reveal any toxic effects or signs of intolerance | at least partially maintaining the ATP concentrations
C[N+](C)(C)C[C@H](O)CC(=O)[O-] [L-carnitine] | inactive | 9.5 ± 0.4% | 11.5 ± 0.9% | 8.5 ± 0.5% | 9.2 ± 1.2% | ineffective | 10.5 ± 0.77% | no significant protective effect; also recorded: much less pronounced | 0.5 ± 0.045 µmol/g tissue | 1.55 ± 0.8 µmol/g tissue | 39 ± 21 s | 40 ± 20 s | – | Much more limited
COC1=C(OC)C(=O)C(C/C=C(\C)CC/C=C(\C)CC/C=C(\C)CC/C=C(\C)CC/C=C(\C)CC/C=C(\C)CC/C=C(\C)CC/C=C(\C)CC/C=C(\C)CCC=C(C)C)=C(C)C1=O [Coenzyme Q10, coenzyme Q10] | – | 11.7 ± 0.9% | 14.5 ± 1.3% | 13.8 ± 1.7% | 12.5 ± 1.7% | poorly effective | 22.2 ± 2.9% | – | 0.64 ± 0.068 µmol/g tissue | 1.65 ± 0.7 µmol/g tissue | 31 ± 12 s | 31 ± 18 s | – | at least partially maintaining the ATP concentrations
